Publication PMC5291098, “Molecular mutagenesis of ppGpp: turning a RelA activator into an inhibitor” (Scientific Reports, 2017)
Where two headings read alike, the source gives them in different places.

Molecular target: T1, E. coli RelA (Escherichia coli, UniProt P0AG20)
T1 construct: made in house
Assay: Inhibition of [3H]GDP to [3H]ppGpp conversion by E. coli RelA activated by vacant 70S ribosomes and 100 μM ppGpp
Type: biochemical
Settings: for Inhibitory effect on RelA (in words) / Activity against RelA (in words): RelA:70S:ppGpp system; for Inhibitory effect on RelA (in words): concentrations up to 1 mM; for IC50: 30 nM RelA, 0.5 μM vacant 70S, 100 μM ppGpp; for nHill (Hill coefficient of the titration fit): Supplementary Table 1, 4-parameter logistic model; for Activation of RelA's synthetic activity (in words): ppGpp up to 100 μM, ppApp 50 µM-1 mM, thio-ppGpp 100 µM (Supplementary Figure 1)
Protocol: For the initial characterization of compounds, we followed the inhibition of [^3H] GDP conversion to [^3H] ppGpp catalyzed by E. coli RelA in a simplified system in which RelA’s activity was induced by vacant 70S ribosomes and 100 μM of ppGpp[15]. Unlabeled ppGpp was added to reaction mixtures in order to linearize the kinetics of [^3H] ppGpp synthesis due to an activating effect on the RelA enzyme. We used a targeted library of 69 nucleotides belonging to several structural classes: ‘true’ ppGpp analogues; Relacin and its derivatives; pyrrolidine, azetidine, piperidine and acyclic phosphonates. Chemical structures of tested compounds and titrations in the RelA:70S:ppGpp system are presented in Supplementary Table 1.
Detailed description of experimental procedures can be found in Supplementary Text. Biochemical assays utilize in vitro translation[58] and stringent response[15] systems from E. coli purified components. Experiments were performed in HEPES:Polymix[58] buffer with either 5 (for enzymatically assembled initiation complexes) or 15 mM (for vacant 70 S, as well as non-enzymatically assembled programmed ribosomes) Mg^2+. Expression and purification of E. faecalis RelQ was performed as per Gaca (2015) and colleagues. GTPase and ppGpp synthesis were followed using TLC separation and radiochemical detection of ^3H-labelled nucleotides. Multiple round in vitro transcription assays were performed as per Bernardo et al.[49] with minor modifications. Inhibition efficiency (IC50) was calculated using 4-parameter logistic model (Hill equation) as per Sebaugh[60].
Thin layer chromatography (TLC) analysis of nucleotide mixtures
Both EF-G GTPase reaction and ppGpp synthesis by RelA were followed by TLC analysis followed by scintillation counting according to Mechold and colleagues, with modifications1. Time points from the reaction mixtures (5 μl, see below for details) were quenched by addition 4 μl 70% formic acid supplemented with a cold nucleotide standard used for UV-shadowing (10 mM GDP and 10 mM GTP) and spotted on PEI-TLC plates (Macherey-Nagel). TLC was run in buffer, plates dried, cut into sections guided by UV-shadowing and 3H radioactivity was quantified by scintillation counting in Optisafe-3 (Fisher) scintillation cocktail on Perkin Elmer Tricarb 2810TR counter. Conversion of substrate to product was quantified as described in Shyp et al. (2012)2.
Enzymatic assays with E. coli RelA
Screening: all experiments were performed in HEPES:Polymix, Mg2+ of 5 mM, 37 […]
μM ppGpp was pre-incubated at 37° C for 2 min and then reaction started by addition of 1 mM ATP, time points (5 μl) taken, quenched with formic acid and analyzed by TLC. Inhibition efficiency (IC50) was calculated using 4-parameter logistic model (Hill equation) as per Sebaugh (2011)3. […]

[1] = 0.3 mM [3H]GDP, 1 mM ATP, read-out: IC50
[2] = 5 mM Mg2+, 37 °C, no unit beside the value, titration axis in mM, read-out: IC50 (Supplementary Table 1, example titration)

T1 sequence (P0AG20 whole entry): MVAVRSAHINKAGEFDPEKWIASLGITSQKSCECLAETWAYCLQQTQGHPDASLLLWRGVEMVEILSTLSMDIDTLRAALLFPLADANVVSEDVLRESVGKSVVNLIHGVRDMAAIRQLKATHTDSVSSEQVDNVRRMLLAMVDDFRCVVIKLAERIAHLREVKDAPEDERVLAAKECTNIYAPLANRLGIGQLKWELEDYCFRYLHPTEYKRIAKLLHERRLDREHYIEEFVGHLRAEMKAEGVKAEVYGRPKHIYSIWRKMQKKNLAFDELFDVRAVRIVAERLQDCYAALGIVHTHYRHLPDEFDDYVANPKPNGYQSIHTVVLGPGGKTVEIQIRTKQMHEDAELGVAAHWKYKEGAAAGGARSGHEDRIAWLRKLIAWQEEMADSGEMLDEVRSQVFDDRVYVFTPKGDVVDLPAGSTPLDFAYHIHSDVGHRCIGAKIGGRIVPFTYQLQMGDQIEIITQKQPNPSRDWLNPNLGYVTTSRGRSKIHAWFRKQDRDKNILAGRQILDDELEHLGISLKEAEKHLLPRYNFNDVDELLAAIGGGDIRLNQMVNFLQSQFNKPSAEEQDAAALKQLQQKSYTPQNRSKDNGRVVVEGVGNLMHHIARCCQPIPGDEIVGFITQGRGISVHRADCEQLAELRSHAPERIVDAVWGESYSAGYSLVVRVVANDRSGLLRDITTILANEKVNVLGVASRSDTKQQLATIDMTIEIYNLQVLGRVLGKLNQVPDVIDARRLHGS

Row | Compound | IC50 [1] | nHill (Hill coefficient of the titration fit) | also measured
1 | NC(=O)C1=CN([C@@H]2O[C@H](COP(=O)(O)OP(=O)(O)OC[C@H]3O[C@@H](n4cnc5c(N)ncnc54)[C@H](OP(=O)(O)O)[C@@H]3O)[C@@H](O)[C@H]2O)C=CC1 [NADPH, reference compound] |  |  | Inhibitory effect on RelA (in words): None of the compounds showed any inhibitory effect
2 | Nc1nc2c(ncn2[C@H]2CCN(C(=O)P(=O)(O)O)C2)c(=O)[nH]1 [DR-4520] | 0.2 ± 0.022 mM | 1.46 ± 0.2 | 
3 | Nc1ncnc2c1ncn2[C@@H]1O[C@@H]2COP(=O)(O)O[C@H]3[C@@H](O)[C@H](n4cnc5c(N)ncnc54)O[C@@H]3COP(=O)(O)O[C@H]2[C@H]1O [c-di-AMP, reference compound] |  |  | Inhibitory effect on RelA (in words): None of the compounds showed any inhibitory effect
4 | Nc1nc2c(ncn2C2CC(OC(=O)NCC(=O)NCC(=O)O)C(COC(=O)NCC(=O)NCC(=O)O)O2)c(=S)[nH]1 (stereo not shown) [DR-5732] |  |  | Activity against RelA (in words): virtually no activity; Activity against RelA (in words) (listed as thio-di-iBu-Relacin): complete inactivation
5 | Nc1nc2c(ncn2C2CCN(C(=O)CP(=O)(O)O)CC2)c(=O)[nH]1 [DR-M011] | 0.234 ± 0.067 mM | 0.62 ± 0.13 | IC50 [2]: 0.23 ± 0.07 mM
6 | CC(C)OP(=O)(O)CN1CC[C@H](n2cnc3c(=O)[nH]c(N)nc32)C1 [DR-4518] | 1.71 ± 0.66 mM |  | 
7 | Nc1nc2c(ncn2[C@@H]2CCN(C(=O)P(=O)(O)O)C2)c(=O)[nH]1 [DR-5267B] | 0.652 ± 0.194 mM | 0.95 ± 0.26 | 
8 | Nc1nc2c(ncn2C2CC(OCP(=O)(O)O)C(COCP(=O)(O)O)O2)c(=O)[nH]1 (stereo not shown) [DR-5799C] | 0.515 ± 0.392 mM | 2.2 ± 2.5 | 
9 | Nc1nc2c(ncn2C2OC(COP(=O)(O)OP(=O)(O)O)C(OP(=O)(O)OP(=O)(O)O)C2O)c(=S)[nH]1 (stereo not shown) [6-thio-ppGpp, reference compound] | 0.0213 ± 0.0021 mM | 1.86 ± 0.29 | IC50 (5 mM Mg2+, 37 °C, no unit beside the value, titration axis in µM, read-out: IC50 (Supplementary Table 1, example titration)): 0.0212 ± 0.00208 mM; Activation of RelA's synthetic activity (in words): neither ppApp nor 6-thio-ppGpp activate; Activation of RelA's synthetic activity (in words) (listed as thio-ppGpp): do not activate
10 | Nc1nc2c(ncn2CCNCC(=O)P(=O)(O)O)c(=O)[nH]1 [DR-5164] | 1.4 ± 0.12 mM |  | 
11 | Nc1nc2c(ncn2C2OC(COP(=O)(O)OP(=O)(O)O)C(OP(=O)(O)OP(=O)(O)O)C2O)c(=O)[nH]1 (stereo not shown) [ppGpp, guanosine tetraphosphate] | 0.72 ± 0.44 mM |  | 
12 | Nc1nc2c(ncn2C2CC(OC(=O)NCC(=O)NCC(=O)O)C(COC(=O)NCC(=O)NCC(=O)O)O2)c(=O)[nH]1 (stereo not shown) [di-iBu-Relacin] |  |  | Activity against RelA (in words): compromises its activity against RelA
13 | Nc1nc2c(ncn2[C@@H]2O[C@@H]3COP(=O)(O)O[C@H]4[C@@H](O)[C@H](n5cnc6c(N)ncnc65)O[C@@H]4COP(=O)(O)O[C@H]3[C@H]2O)c(=O)[nH]1 [c-di-GAMP, reference compound] |  |  | Inhibitory effect on RelA (in words): None of the compounds showed any inhibitory effect
14 | Nc1nc2c(ncn2[C@@H]2O[C@@H]3COP(=O)(O)O[C@H]4[C@@H](O)[C@H](n5cnc6c(=O)[nH]c(N)nc65)O[C@@H]4COP(=O)(O)O[C@H]3[C@H]2O)c(=O)[nH]1 [c-di-GMP, reference compound] |  |  | Inhibitory effect on RelA (in words): None of the compounds showed any inhibitory effect
15 | CC(C)C(=O)Nc1nc2c(ncn2[C@@H]2O[C@H](COP(=O)(O)OCP(=O)(O)O)[C@@H](OP(=O)(O)OCP(=O)(O)O)[C@H]2OC2CCCCO2)c(=O)[nH]1 (stereo partly shown) [DR-4238, 2-N-isobutyryl-2’-tetrahydropyranylguanosine 3’,5’-di(phosphonomethoxyphosphate)] |  | 1.85 ± 0.2 | IC50 [2]: 0.1 ± 0.006 mM
16 | NC(=O)C1=CN([C@@H]2O[C@H](COP(=O)(O)OP(=O)(O)OC[C@H]3O[C@@H](n4cnc5c(N)ncnc54)[C@H](O)[C@@H]3O)[C@@H](O)[C@H]2O)C=CC1 [NADH, reference compound] |  |  | Inhibitory effect on RelA (in words): None of the compounds showed any inhibitory effect
17 | Nc1ncnc2c1ncn2C1CCN(C(=O)P(=O)(O)O)CC1 [DR-5994A] |  | 1 ± 0.088 | IC50 [2]: 0.3 ± 0.03 mM
18 | CC(C)C(=O)Nc1nc2c(ncn2C2OC(COP(=O)(O)OCP(=O)(O)O)C(OP(=O)(O)OCP(=O)(O)O)C2O)c(=O)[nH]1 (stereo not shown) [DR-4239, 2-N-isobutyryl-guanosine 3’,5’-di(phosphonomethoxyphosphate)] | 0.101 ± 0.008 mM | 2.13 ± 0.3 | IC50 [2]: 0.102 ± 0.008 mM
19 | Nc1nc2c(ncn2C2OC(COCP(=O)(O)O)C(OCP(=O)(O)O)C2O)c(=O)[nH]1 (stereo not shown) [DR-6331] | 0.076 ± 0.006 mM | 1.5 ± 0.2 | 
